25 compounds from patent US11414413B2, “Heterocyclic compound as JAK inhibitor, and salts and therapeutic use thereof” (Suzhou Longbiotech Pharmaceuticals Co., Ltd., priority 2016, dated 2022) can be followed below.

Bounds are passed on as bounds.

Common to all, as to type: biochemical
Test [1] concerns the target JAK2 (Homo sapiens (Human), UniProt O60674). Briefly: Inhibition of JAK2, luminescence kinase assay (ADP-Glo). The settings on record: purified recombinant JAK2. On the procedure:
(§1) The study of the effect of compounds on the activity of purified recombinant JAK was performed by studying the inhibitory activity of the compounds on JAK from the enzymatic level. The experimental principle is to use a luminescence kinase assay to detect the ADP content produced by the reaction of JAK with the substrate Poly (4:1 Glu, Tyr) peptide: after ADP is converted to ATP, ATP can act as a substrate for the Ultra-Glo luciferase catalytic reaction, producing an optical signal. The luminescence signal is positively correlated with the amount of ADP and kinase activity. Therefore, the inhibitory effect of the compounds on the recombinant JAK was determined by observing the luminescence signal produced by the reaction of JAK and the substrate, and was expressed by IC50.
(§2) Experimental method: 10 different concentrations of compounds were incubated with JAK1, JAK2 and JAK3, respectively, for 60 minutes at 37° C. The substrate and ATP were then added, mixed, and reacted at 37° C. for 50 minutes. 25 μl of ADP-Glo™ was added and mixed for 2 minutes. The reaction was carried out for 50 minutes at room temperature. Further, 50 μl of the detection reagent was added and mixed for 2 minutes, and incubated at room temperature for 50 minutes, and detected by a chemiluminometer.
On the technique in general: ADP-Glo first removes unused ATP, then detects ADP through luciferase.

The target in test [2] is JAK1 (Homo sapiens (Human), UniProt P23458). Put plainly: Inhibition of JAK1, luminescence kinase assay (ADP-Glo). Particulars: purified recombinant JAK1. On the procedure:
as §1, §2

Test [3] addresses JAK3 (Homo sapiens (Human), UniProt P52333). Put plainly: Inhibition of JAK3, luminescence kinase assay (ADP-Glo). Particulars: purified recombinant JAK3. How it is done:
as §1, §2

Chain of JAK1 (P23458 whole entry): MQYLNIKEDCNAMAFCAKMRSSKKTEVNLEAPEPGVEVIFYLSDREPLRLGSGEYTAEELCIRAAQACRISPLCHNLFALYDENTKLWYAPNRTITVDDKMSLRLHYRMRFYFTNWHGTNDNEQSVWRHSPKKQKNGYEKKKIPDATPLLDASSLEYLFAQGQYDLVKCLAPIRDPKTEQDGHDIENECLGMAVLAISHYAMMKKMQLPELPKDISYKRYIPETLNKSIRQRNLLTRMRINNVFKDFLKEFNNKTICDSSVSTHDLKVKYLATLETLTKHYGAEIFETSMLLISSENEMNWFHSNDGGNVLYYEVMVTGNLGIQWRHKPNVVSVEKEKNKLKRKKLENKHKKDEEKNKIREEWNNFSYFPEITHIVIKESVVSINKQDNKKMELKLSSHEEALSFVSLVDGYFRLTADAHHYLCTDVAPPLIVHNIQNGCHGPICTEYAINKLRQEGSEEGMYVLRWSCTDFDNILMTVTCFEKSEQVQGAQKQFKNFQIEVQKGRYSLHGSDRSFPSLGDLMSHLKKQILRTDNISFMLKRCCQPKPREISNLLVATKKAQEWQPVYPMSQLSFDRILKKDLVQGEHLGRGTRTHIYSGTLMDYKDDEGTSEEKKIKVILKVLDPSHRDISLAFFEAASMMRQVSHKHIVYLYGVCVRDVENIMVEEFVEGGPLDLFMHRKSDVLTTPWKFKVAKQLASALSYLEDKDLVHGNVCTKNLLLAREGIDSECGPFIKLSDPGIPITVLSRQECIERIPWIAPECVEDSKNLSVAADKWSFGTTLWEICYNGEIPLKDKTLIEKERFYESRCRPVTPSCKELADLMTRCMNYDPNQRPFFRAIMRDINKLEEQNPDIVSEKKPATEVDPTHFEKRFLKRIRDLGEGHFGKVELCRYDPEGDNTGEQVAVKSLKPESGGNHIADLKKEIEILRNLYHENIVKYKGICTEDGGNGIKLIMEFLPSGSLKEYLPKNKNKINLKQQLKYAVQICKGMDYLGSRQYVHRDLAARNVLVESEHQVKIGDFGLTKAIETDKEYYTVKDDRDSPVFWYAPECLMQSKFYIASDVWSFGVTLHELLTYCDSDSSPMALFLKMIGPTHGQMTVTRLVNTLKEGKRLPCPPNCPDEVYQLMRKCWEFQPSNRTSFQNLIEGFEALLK
Chain of JAK2 (O60674 whole entry): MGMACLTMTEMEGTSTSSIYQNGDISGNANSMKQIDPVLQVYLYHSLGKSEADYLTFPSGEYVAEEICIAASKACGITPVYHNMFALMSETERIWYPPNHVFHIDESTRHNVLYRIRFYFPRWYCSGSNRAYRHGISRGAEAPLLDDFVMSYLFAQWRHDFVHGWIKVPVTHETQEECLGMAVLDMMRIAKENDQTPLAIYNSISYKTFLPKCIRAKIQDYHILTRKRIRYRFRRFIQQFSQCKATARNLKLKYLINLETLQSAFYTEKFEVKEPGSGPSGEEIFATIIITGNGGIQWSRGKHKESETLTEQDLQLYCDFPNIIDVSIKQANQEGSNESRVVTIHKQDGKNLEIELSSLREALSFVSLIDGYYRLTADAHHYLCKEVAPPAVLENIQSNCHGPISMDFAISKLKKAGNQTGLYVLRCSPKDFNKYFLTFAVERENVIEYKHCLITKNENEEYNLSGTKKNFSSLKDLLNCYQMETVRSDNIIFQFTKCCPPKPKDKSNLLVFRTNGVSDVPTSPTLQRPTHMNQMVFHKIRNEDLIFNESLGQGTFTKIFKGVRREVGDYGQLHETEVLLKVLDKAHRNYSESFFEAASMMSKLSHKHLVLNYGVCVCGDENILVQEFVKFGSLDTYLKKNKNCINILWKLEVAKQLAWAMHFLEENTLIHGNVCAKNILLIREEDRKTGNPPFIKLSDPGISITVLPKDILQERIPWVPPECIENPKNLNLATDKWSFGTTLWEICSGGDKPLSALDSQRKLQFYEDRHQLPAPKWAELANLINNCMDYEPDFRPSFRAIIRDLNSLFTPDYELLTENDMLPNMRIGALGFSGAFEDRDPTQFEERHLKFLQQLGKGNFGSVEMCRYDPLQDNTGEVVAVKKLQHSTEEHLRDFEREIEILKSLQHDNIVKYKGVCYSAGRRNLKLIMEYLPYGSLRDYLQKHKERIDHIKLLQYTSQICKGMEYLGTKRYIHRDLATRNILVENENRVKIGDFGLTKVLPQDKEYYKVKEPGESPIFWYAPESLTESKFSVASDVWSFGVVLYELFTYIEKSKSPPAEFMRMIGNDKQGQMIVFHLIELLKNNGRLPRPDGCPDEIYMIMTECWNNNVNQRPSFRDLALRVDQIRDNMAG
Chain of JAK3 (P52333 whole entry): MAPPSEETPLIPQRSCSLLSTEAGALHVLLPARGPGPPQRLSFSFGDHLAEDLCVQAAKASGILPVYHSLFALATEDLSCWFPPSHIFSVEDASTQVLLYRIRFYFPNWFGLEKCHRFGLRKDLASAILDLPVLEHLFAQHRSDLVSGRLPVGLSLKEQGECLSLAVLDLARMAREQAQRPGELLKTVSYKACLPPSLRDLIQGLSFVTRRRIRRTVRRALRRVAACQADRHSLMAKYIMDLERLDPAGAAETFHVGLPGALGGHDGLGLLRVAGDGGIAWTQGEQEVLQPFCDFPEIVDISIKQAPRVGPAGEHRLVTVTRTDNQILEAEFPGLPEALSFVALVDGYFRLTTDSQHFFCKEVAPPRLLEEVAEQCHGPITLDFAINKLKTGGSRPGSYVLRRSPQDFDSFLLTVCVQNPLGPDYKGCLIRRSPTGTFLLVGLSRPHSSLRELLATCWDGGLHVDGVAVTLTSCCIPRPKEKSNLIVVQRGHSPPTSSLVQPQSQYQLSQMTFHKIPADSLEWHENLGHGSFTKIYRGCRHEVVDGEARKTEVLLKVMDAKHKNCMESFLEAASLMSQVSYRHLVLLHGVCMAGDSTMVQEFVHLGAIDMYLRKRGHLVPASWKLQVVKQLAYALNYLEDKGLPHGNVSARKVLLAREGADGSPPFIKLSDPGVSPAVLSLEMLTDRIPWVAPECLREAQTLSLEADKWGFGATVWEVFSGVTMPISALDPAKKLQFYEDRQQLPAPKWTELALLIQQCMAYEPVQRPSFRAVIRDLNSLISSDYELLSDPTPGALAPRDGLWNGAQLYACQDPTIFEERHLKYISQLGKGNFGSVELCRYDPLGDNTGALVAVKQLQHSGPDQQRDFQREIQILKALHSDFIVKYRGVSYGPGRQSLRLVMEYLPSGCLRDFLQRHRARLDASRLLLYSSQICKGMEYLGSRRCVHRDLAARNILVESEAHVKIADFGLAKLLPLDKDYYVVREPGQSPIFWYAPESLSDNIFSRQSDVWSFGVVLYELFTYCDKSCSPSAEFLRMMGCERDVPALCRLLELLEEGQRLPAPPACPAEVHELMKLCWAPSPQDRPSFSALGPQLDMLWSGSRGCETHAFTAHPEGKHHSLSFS

`CCS(=O)(=O)N1CC(CC#N)(n2cc(-c3c[nH]c4ncccc34)cn2)C1` [Example 1, 2-(3-(4-(1H-pyrrolo[2,3-b]pyridin-3-yl)-1H-pyrazol-1-yl)-1-(ethylsulfonyl)azetidin-3-yl)acetonitrile]: in test [1], the IC50 lay within 20 to 50 nM.
Regarding `N#CCC1(n2cc(-c3c[nH]c4ncccc34)cn2)CCS(=O)(=O)CC1` [Example 2, 2-(4-(4-(1H-pyrrolo[2,3-b]pyridin-3-yl)-1H-pyrazol-1-yl)-1,1-dioxotetrahydro-2H-thiopyran-4-yl)acetonitrile], the IC50 is less than 20 nM in test [2], 20 to 50 nM in test [1] and more than 50 nM in test [3].
In the case of `N#CCC1(n2cc(-c3ccnc4[nH]ccc34)cn2)CCS(=O)(=O)CC1` [Example 4, 2-(4-(4-(1H-pyrrolo[2,3-b]pyridin-4-yl)-1H-pyrazol-1-yl)-1,1-dioxotetrahydro-2H-thiopyran-4-yl)acetonitrile], the 50% inhibitory concentration (IC50) is less than 20 nM in test [2], less than 20 nM in test [1] and more than 50 nM in test [3].
As to `CS(=O)(=O)N1CCC(CC#N)(n2cc(-c3c[nH]c4ncccc34)cn2)CC1` [Example 5], the IC50 in test [2] and in test [3] was less than 20 nM in each case.
For `CCS(=O)(=O)N1CC(CC(N)=O)(n2cc(-c3c[nH]c4ncccc34)cn2)C1` [Example 6, 2-(3-(4-(1H-pyrrolo[2,3-b]pyridin-3-yl)-1H-pyrazol-1-yl)-1-(ethylsulfonyl)azetidin-3-yl)acetamide], the IC50 in test [2], in test [1] and in test [3] was more than 50 nM in each case.
In the case of `CCS(=O)(=O)N1CC(CC(=O)NCC(F)(F)F)(n2cc(-c3c[nH]c4ncccc34)cn2)C1` [Example 7, 2-(3-(4-(1H-pyrrolo[2,3-b]pyridin-3-yl)-1H-pyrazol-1-yl)-1-(ethylsulfonyl)azetidin-3-yl)-N-(2,2,2-trifluoroethyl)acetamide], the IC50 in test [2], in test [1] and in test [3] was more than 50 nM each time.
`CCS(=O)(=O)N1CC(CC(=O)NCC(F)(F)F)(n2cc(-c3ncnc4[nH]ccc34)cn2)C1` [Example 8, 2-(3-(4-(1H-pyrrolo[2,3-d]pyrimidin-4-yl)-1H-pyrazol-1-yl)-1-(ethylsulfonyl)azetidin-3-yl)-N-(2,2,2-trifluoroethyl)acetamide]: the half-inhibitory concentration (IC50) in test [2], in test [1] and in test [3] was more than 50 nM in each case.
Consider `CCS(=O)(=O)N1CC(CC(=O)NCC(F)(F)F)(n2cc(-c3ccnc4[nH]ccc34)cn2)C1` [Example 9, 2-(3-(4-(1H-pyrrolo[2,3-b]pyridin-4-yl)-1H-pyrazol-1-yl)-1-(ethylsulfonyl)azetidin-3-yl)-N-(2,2,2-trifluoroethyl)acetamide], for which the 50% inhibitory concentration (IC50) in test [2], in test [1] and in test [3] was more than 50 nM in each case.
On to `CCS(=O)(=O)N1CC(CC(=O)NC)(n2cc(-c3ccnc4[nH]ccc34)cn2)C1` [Example 10, 2-(3-(4-(1H-pyrrolo[2,3-b]pyridin-4-yl)-1H-pyrazol-1-yl)-1-(ethylsulfonyl)azetidin-3-yl)-N-methylacetamide], for which the 50% inhibitory concentration (IC50) in test [2], in test [1] and in test [3] was more than 50 nM in each case.
Turning to `CCS(=O)(=O)N1CC(CC(N)=O)(n2cc(-c3ccnc4[nH]ccc34)cn2)C1` [Example 11, 2-(3-(4-(1H-pyrrolo[2,3-b]pyridin-4-yl)-1H-pyrazol-1-yl)-1-(ethylsulfonyl)azetidin-3-yl)acetamide], the IC50 in test [2], in test [1] and in test [3] was more than 50 nM in each case.
For the compound `CS(=O)(=O)N1CC(CC(=O)NCC(F)(F)F)(n2cc(-c3ncnc4[nH]ccc34)cn2)C1` [Example 12, 2-(3-(4-(7H-pyrrolo[2,3-d]pyrimidin-4-yl)-1H-pyrazol-1-yl)-1-(methylsulfonyl)azetidin-3-yl)-N-(2,2,2-trifluoroethyl)acetamide], the IC50 in test [2] is 20 to 50 nM; in test [1], 20 to 50 nM; in test [3], more than 50 nM.
As for `CNC(=O)CC1(n2cc(-c3ncnc4[nH]ccc34)cn2)CN(S(C)(=O)=O)C1` [Example 13, 2-(3-(4-(7H-pyrrolo[2,3-d]pyrimidin-4-yl)-1H-pyrazol-1-yl)-1-(methylsulfonyl)azetidin-3-yl)-N-methylacetamide], the IC50 in test [2], in test [1] and in test [3] was more than 50 nM each time.
As to `CS(=O)(=O)N1CC(CC(N)=O)(n2cc(-c3ncnc4[nH]ccc34)cn2)C1` [Example 14, 2-(3-(4-(7H-pyrrolo[2,3-d]pyrimidin-4-yl)-1H-pyrazol-1-yl)-1-(methylsulfonyl)azetidin-3-yl) acetamide], the IC50 was 20 to 50 nM in test [2], 20 to 50 nM in test [1] and more than 50 nM in test [3].
With `CS(=O)(=O)N1CC(CC(=O)NCC(F)(F)F)(n2cc(-c3ccnc4[nH]ccc34)cn2)C1` [Example 15, 2-(3-(4-(1H-pyrrolo[2,3-b]pyridin-4-yl)-1H-pyrazol-1-yl)-1-(methylsulfonyl)azetidin-3-yl)-N-(2,2,2-trifluoroethyl)acetamide], the IC50 in test [2] was less than 20 nM; in test [1], 20 to 50 nM; in test [3], less than 20 nM.
Regarding `NC(=O)CC1(n2cc(-c3c[nH]c4ncccc34)cn2)CCS(=O)(=O)CC1` [Example 18, 2-(4-(4-(1H-pyrrolo[2,3-b]pyridin-3-yl)-1H-pyrazol-1-yl)-1,1-dioxotetrahydro-2H-thiopyran-4-yl)acetamide], the IC50 in test [2] was less than 20 nM; in test [1], more than 50 nM; in test [3], less than 20 nM.
`O=C(CC1(n2cc(-c3c[nH]c4ncccc34)cn2)CCS(=O)(=O)CC1)NCC(F)(F)F` [Example 19, 2-(4-(4-(1H-pyrrolo[2,3-b]pyridin-3-yl)-1H-pyrazol-1-yl)-1,1-dioxotetrahydro-2H-thiopyran-4-yl)-N-(2,2,2-trifluoroethyl)acetamide]: the IC50 in test [2] is 20 to 50 nM; in test [1] it was more than 50 nM; in test [3], more than 50 nM.
`O=C(CC1(n2cc(-c3ncnc4[nH]ccc34)cn2)CCS(=O)(=O)CC1)NCC(F)(F)F` [Example 20, 2-(4-(4-(7H-pyrrolo[2,3-d]pyrimidin-4-yl)-1H-pyrazol-1-yl)-1,1-dioxotetrahydro-2H-thiopyran-4-yl)-N-(2,2,2-trifluoroethyl)acetamide]: the IC50 was 20 to 50 nM in test [2], more than 50 nM in test [1] and more than 50 nM in test [3].
On to `O=C(CC1(n2cc(-c3c[nH]c4ncccc34)cn2)CCCC1)NCC(F)(F)F` [Example 25, 2-(1-(4-(1H-pyrrolo[2,3-b]pyridin-3-yl)-1H-pyrazol-1-yl)cyclopentyl)-N-(2,2,2-trifluoroethyl) acetamide], for which the IC50 in test [2] and in test [3] was 20 to 50 nM each time.
Regarding `O=C(CC1(n2cc(-c3ncnc4[nH]ccc34)cn2)CCCC1)NCC(F)(F)F` [Example 26, 2-(1-(4-(1H-pyrrolo[2,3-b]pyrimidin-4-yl)-1H-pyrazol-1-yl)cyclopentyl)-N-(2,2,2-trifluoroethyl)acetamide], the IC50 in test [2] fell in the range of 20 to 50 nM.
Turning to `CS(=O)(=O)N1CC(Nc2ccnc(-c3c[nH]c4ncccc34)n2)(C(=O)NCC(F)(F)F)C1` [Example 31, 3-((2-(1H-pyrrolo[2,3-b]pyridin-3-yl)pyrimidin-4-yl)amino)-1-(methylsulfonyl)-N-(2,2,2-trifluoroethyl)azetidin-3-carboxamide], the IC50 in test [2] and in test [1] was more than 50 nM throughout.
For the compound `CCS(=O)(=O)N1CC(Nc2ccnc(-c3c[nH]c4ncccc34)n2)(C(=O)NCC(F)(F)F)C1` [Example 32, 3-((2-(1H-pyrrolo[2,3-b]pyridin-3-yl)pyrimidin-4-yl)amino)-1-(ethylsulfonyl)-N-(2,2,2-trifluoroethyl)azetidin-3-carboxamide], the IC50 in test [2] and in test [1] was more than 50 nM in each case.
Turning to `CS(=O)(=O)N1CC(Nc2nc(-c3c[nH]c4ncccc34)ncc2F)(C(=O)NCC(F)(F)F)C1` [Example 34], the IC50 in test [2] and in test [1] was more than 50 nM each time.
Regarding `CCS(=O)(=O)N1CCC(Nc2ccnc(-c3c[nH]c4ncccc34)n2)(C(=O)NCC(F)(F)F)CC1` [Example 38, 4-((2-(1H-pyrrolo[2,3-b]pyridin-3-yl)pyrimidin-4-yl)amino)-1-(ethylsulfonyl)-N-(2,2,2-trifluoroethyl)piperidin-4-carboxamide], the IC50 in test [3] was in the range of 20 to 50 nM.
`O=C(NCC(F)(F)F)C1(Nc2nc(-c3c[nH]c4ncccc34)ncc2F)CCS(=O)(=O)CC1` [Example 44, 4-((5-fluoro-2-(1H-pyrrolo[2,3-b]pyridin-3-yl)pyrimidin-4-yl)amino)-N-(2,2,2-trifluoroethyl)tetrahydro-2H-thiopyran-4-carboxamide 1,1-dioxide]: the IC50 in test [2] was more than 50 nM; in test [1] it was 20 to 50 nM.
For `CCS(=O)(=O)N1CC(C#N)(Nc2ccnc(-c3ccnc4[nH]ccc34)n2)C1` [Example 47, 3-((2-(1H-pyrrolo[2,3-b]pyridin-4-yl)pyrimidin-4-yl)amino)-1-(ethylsulfonyl)azetidine-3-carbonitrile], the concentration for half-maximal inhibition (IC50) in test [3] lay in the range of 20 to 50 nM.

For orientation: IC50 means the concentration that gives 50% inhibition.
